Data as given in PMC7393680 (Organic & biomolecular chemistry, 2020).
Read-outs that look alike come from different tables or passages of the source.

Experiments:
[1] = biological target: 5FW-BPTF bromodomain (His9-tagged, 5-fluorotryptophan-labelled); assay: NMR titration
[2] = biological target: BPTF; details: prior lead inhibitor; cited from earlier work
[3] = biological target: 5FW-BPTF bromodomain (Homo sapiens, UniProt Q12830); assay: SPR, 5FW-labeled His9-BPTF on NTA chip, steady-state; type: binding
[4] = system: BPTF; details: ITC, cited from earlier work

Histone variant H2AZ.1 K4ac,K11ac peptide
Kd [1]: 720 µM

COC(=O)c1cccc(NC(=O)NC2CCN(c3ccnc(Nc4ccc(F)cc4)n3)C2)c1 (centres unmarked) [AU1]
Kd [2]: 2800 nM

CN(C)CCCOc1ccc(-c2cc(NCCCn3cccn3)nc(S(C)(=O)=O)n2)cc1 [compound 2, TP-238]
Kd [3]: 250 ± 20 nM
fold weaker affinity for BPTF over CECR2 ([4]; BPTF vs CECR2): 10 fold
Kd ([4]; read-out: Reported BPTF Kd, unlabeled BPTF, thesgc.org): 120 nM
